Like-named read-outs stand apart in the source and are kept apart here.
How the values were obtained:
[1] = Static thermostability of stabilized resin, simplified method (GARDNER sub-scale), Compound A; details: 210° C
Protocol: The stabilizing power of the substances of the invention was studied from two points of view:
These studies were performed with six different formulae of vinyl resins (hereinafter referred to as Compounds).
The different compounds were mixed and calendered in a mixer of which the cylinders were heated to 160° C. The rigid sheets so obtained were then heated in an oven to a temperature between 180° C and 215° C, until incipient carbonization.
A stove with rotating drums, ventilated and equipped with a thermostat was used for this operation. In the trials described hereunder, the behaviour of a sheet containing the stabilizer to be tested was compared to that of a sheet of the same formula but containing 2-phenyl-indole as stabilizer.
2. It is also possible to use a simplified method which is more rapid and with which valid results are also obtained: a reference scale is drawn up with sheets of thermally treated polyvinyl chloride, of which the colourations have been definitely determined in GARDNER degrees as above. A GARDNER sub-scale is thus obtained in polyvinyl chloride sheets which can be directly compared to the sheets to be tested without using the comparator.
Finally, trials were carried out with Stabilizers 15, 16 and 17 and with 2-phenyl-indole. Compound A was used and the temperature was 210° C.

mice = type: in vivo
Protocol: The study of the acute toxicity of the stabilizers listed below was carried out by determining the dose of substance which provoked the death of 50% of the treated animals (LD50). A gummy suspension of the substance under study was administered by oral route to groups of at least ten mice and the following results were observed: […]

[2] = Extractibility of the stabilizer from Compound A containing Stabilizer 16
Protocol: This study was carried out in accordance with the requirements of the Food and Drug Administration (U.S.A.).
The extractions were performed in semi-rigid bottles, prepared with Compounds Nos. 609 and 675, and with the following solvents: water, an aqueous solution of acetic acid (3%), ethanol-water 50/50, heptane.
The ratio of the volume of solvent to the surface of plastic material exposed to extraction was about 1 cm^2 to […] of solvent, taking into account the geometric characteristics of the bottles.
The quantity of stabilizer extracted was determined by colorimetric assay using p-dimethylaminobenzaldehyde, in accordance with the method described in Analytical Chemistry 36, 425-26 (1964).
The amounts of stabilizer assayed are expressed in μg per liter of extraction solvent or, which is the same, per 1000 cm^2 of surface submitted to extraction.
The same trials were carried out with Compound A containing 2-(4'-dodecylthio-phenyl)-indole (Stabilizer 16) as stabilizer and the following results were obtained: […]

Row | Compound | Static thermostability compared with 2-phenyl-indole [1] | Colouration of sheet (GARDNER sub-scale) ([1]; 0 min) | Colouration of sheet (GARDNER sub-scale) ([1]; 3 min) | Colouration of sheet (GARDNER sub-scale) ([1]; 6 min) | Colouration of sheet (GARDNER sub-scale) ([1]; 9 min) | Colouration of sheet (GARDNER sub-scale) ([1]; 12 min) | Colouration of sheet (GARDNER sub-scale) ([1]; 15 min) | Colouration of sheet (GARDNER sub-scale) ([1]; 18 min) | LDO (maximal dose which does not provoke any death) (mice; mouse, in vivo, po) | Toxic symptoms (mice; oral, mice, LDO study) | Toxic symptoms (mice; mouse, in vivo, po) | Amount of stabilizer extracted ([2]; 3% aqueous acetic acid, 20 days) | Amount of stabilizer extracted ([2]; aqueous ethanol 50/50, 9 days) | Amount of stabilizer extracted ([2]; heptane, 48 hours) | Amount of stabilizer extracted ([2]; water, 10 days)
1 | CCCCSc1ccc(-c2cc3ccccc3[nH]2)cc1 [Stabilizer 15, 2-(4'-butylthio-phenyl)-indole] | very rapidly found to be superior to 2-phenyl-indole | 1 GARDNER degrees | 1 GARDNER degrees | 2 GARDNER degrees | 5 GARDNER degrees | 10 GARDNER degrees | 13 GARDNER degrees | burnt | > 3000 mg/kg | none |  |  |  |  | 
2 | CCCCCCCCCCCCSc1ccc(-c2cc3ccccc3[nH]2)cc1 [Stabilizer 16, 2-(4'-n-dodecylthio-phenyl)-indole] | very rapidly found to be superior to 2-phenyl-indole | 1 GARDNER degrees | 1 GARDNER degrees | 2 GARDNER degrees | 5 GARDNER degrees | 10 GARDNER degrees | 13 GARDNER degrees | burnt | > 3000 mg/kg |  | none | < 3 μg per liter | < 10 μg per liter | 175 μg per liter | < 3 μg per liter

Reference: US4057530A, “2-Phenyl-indole derivatives and process for preparing the same” (priority 1974, dated 1977)
